Values after ≈ are worked out from the molar mass of the structure shown.

What all share (type): functional
For test [1], the system named is Aspergillus fumigatus. As to the kind of experiment: In vitro antifungal activity against Aspergillus fumigatus CF1004 was determined at pH 7 for inoculum size of 1*10e4 cfu/ml by broth dilution method.
Test [2] relates to Aspergillus fumigatus. The experiment in a line: In vitro antifungal activity against Aspergillus fumigatus CF1003 was determined at pH 7 for inoculum size of 1*10e4 cfu/ml by broth dilution method.
The subject of test [3] is Candida albicans. The experiment in a line: In vitro antifungal activity against Candida albicans CY3003 was determined at pH 7 for inoculum size of 1*10e4 cfu/ml by broth dilution method.
In test [4] the test system is Candida albicans. The experiment in a line: In vitro antifungal activity against Candida albicans CY1002 was determined at pH 7 for inoculum size of 1*10e4 cfu/ml by broth dilution method.
The test system of test [5] is Candida albicans. As to the kind of experiment: In vitro antifungal activity against Candida albicans CY1005 was determined at pH 7 for inoculum size of 1*10e4 cfu/ml by broth dilution method.
In test [6] the test system is Cryptococcus neoformans. As to the kind of experiment: In vitro antifungal activity against Cryptococcus neoformans CY1057 was determined at pH 7 for inoculum size of 1*10e4 cfu/ml by broth dilution method.
For test [7], the system named is Cryptococcus neoformans. The experiment in a line: In vitro antifungal activity against Cryptococcus neoformans CY1059 was determined at pH 7 for inoculum size of 1*10e4 cfu/ml by broth dilution method.

As for `CCc1ccc(CC[C@@H]2CCC(C)(C)[C@H](OC)[C@H]2Cn2ccnc2)cc1`, the IC80 in test [1] was 0.19 µg/mL (≈ 0.536 µM); in test [2], 0.37 µg/mL (≈ 1.04 µM); in test [3] it was 0.0025 µg/mL (≈ 0.00705 µM); in test [4] it was 0.059 µg/mL (≈ 0.166 µM); in test [5] it was 0.012 µg/mL (≈ 0.0338 µM); in test [6], 0.12 µg/mL (≈ 0.338 µM). The compound also had an IC80 in test [7] of 0.14 µg/mL (≈ 0.395 µM).

Take `CCCCCCC/C=C/C[C@@H]1OC[C@H](C)[C@H](OC)[C@H]1COC(=O)CN`: the IC80 in test [1] worked out at 0.52 µg/mL (≈ 1.46 µM); in test [2], 0.73 µg/mL (≈ 2.05 µM); in test [3], 0.97 µg/mL (≈ 2.73 µM); in test [4] it was 1.8 µg/mL (≈ 5.06 µM); in test [5], 1.58 µg/mL (≈ 4.44 µM); in test [6], 2.19 µg/mL (≈ 6.16 µM). Further, it took 3.2 µg/mL (≈ 9 µM) to reach the 80% level in test [7] (IC80).

Turning to `CCc1ccc(CC[C@@H]2CCC(C)(C)[C@H](OC)[C@H]2Cn2cncn2)cc1`, the IC80 in test [1] was greater than 200 µg/mL; in test [2] it was greater than 200 µg/mL; in test [3] it was 0.012 µg/mL (≈ 0.0338 µM); in test [4], 0.098 µg/mL (≈ 0.276 µM); in test [5] it was 0.042 µg/mL (≈ 0.118 µM); in test [6], 0.82 µg/mL (≈ 2.31 µM). The IC80 in test [7] was determined as 0.37 µg/mL (≈ 1.04 µM).

As to `OC(Cn1cncn1)(Cn1cncn1)c1ccc(F)cc1F` [FLUCONAZOLE], the IC80 in test [1] was found to be 180 µg/mL (≈ 588 µM); in test [2], 200 µg/mL (≈ 653 µM); in test [3] it was 1.1 µg/mL (≈ 3.59 µM); in test [4] it was 2.6 µg/mL (≈ 8.49 µM); in test [5] it was 2.8 µg/mL (≈ 9.14 µM); in test [6], 3.8 µg/mL (≈ 12.4 µM). The IC80 in test [7] was 11 µg/mL (≈ 35.9 µM).

As for `CCC(C)n1ncn(-c2ccc(N3CCN(c4ccc(OC[C@H]5CO[C@](Cn6cncn6)(c6ccc(Cl)cc6Cl)O5)cc4)CC3)cc2)c1=O` (stereo not given in full) [ITRACONAZOLE], the IC80 was less than 0.0004 µg/mL in test [1]; 0.02 µg/mL (≈ 0.0283 µM) in test [2]; 0.0012 µg/mL (≈ 0.0017 µM) in test [3]; 0.03 µg/mL (≈ 0.0425 µM) in test [4]; 0.0056 µg/mL (≈ 0.00794 µM) in test [5]; 0.022 µg/mL (≈ 0.0312 µM) in test [6]. In test [7], the IC80 was 0.046 µg/mL (≈ 0.0652 µM).

The values are drawn from ChEMBL document CHEMBL1151576, “Synthesis of cyclohexyl analogs of restricticin” (Bioorg Med Chem Lett, 1994).
